{"source": "paper PMC3558502", "about": "“Acaricide, Fungicide and Drug Interactions in Honey Bees (Apis mellifera)” (PLoS ONE, 2013)", "key": {"[1]": {"tested_on": "honey bees (Apis mellifera)", "test": "Lethal dose bioassay: topical sublethal pre-treatment (acaricide, fungicide or enzyme inhibitor), then topical acaricide dose series, 2009", "conditions": "for interactive effect between pre-treatment and acaricide toxicity (in words): 2009 topical pre-treatments, partner named in the value; for LD10: from fitted dose-response lines, control pre-treatment, 2009 (Table S1)", "experimental": "Bees were first treated with a sublethal dose of either an acaricide, a fungicide, an antimicrobial drug, or an enzyme inhibitor. Bees were then treated with a range of lethal doses of an acaricide to estimate the dose-response curve. […] We tested 25 of the 6×6 possible acaricide-acaricide combinations, 24 of the 6×5 fungicide-acaricide combinations, 15 of the 6×3 antimicrobial-acaricide combinations and 9 of the 6×3 enzyme inhibitor-acaricide combinations. […] The fungicides propiconazole, fenbuconazole, metconazole and myclobutanil were tested in combination with a single acaricide, tau-fluvalinate.\n(§1) Frames of late-stage brood were collected from these colonies and placed in a dark, humid incubator (Darwin Chambers Co., St. Louis, MO, model H024) at 34°C. Newly emerged adults were brushed from frames daily into screened wooden cages (21×14×12 cm) and weighed as a group to estimate the number of bees. Each cohort of 200–800 bees was provisioned with 1∶1 (w/w) granulated sugar dissolved in water and held for 3–4 days in the incubator.\nEach treatment series was conducted using 3–4 day-old adult worker bees divided into 8–13 subgroups of 20 bees each. Bees were narcotized with carbon dioxide and each subgroup was placed in a separate wax-coated paper cup (177 cm^3; Solo S306, Highland Park, IL) covered with cotton cheesecloth and secured with two rubber bands. A maximum sublethal pre-treatment of an acaricide, fungicide, enzyme inhibitor, or solvent control, was then applied to bees in all subgroups. […] Sublethal doses used as pre-treatment for acaricides were determined in preliminary bioassays or previous studies and corresponded to doses less than or near the LD10 values determined in the current experiment. […] All doses were delivered topically in 1 µl of acetone and applied to the thoracic notum using a 50 µl syringe fitted in a repeating dispenser (Hamilton PB-600, Reno, NV). A control pre-treatment consisting of 1 µl of pure acetone was also included.\n(§2) Groups of pre-treated bees were allowed to recover for 1 h to minimize mortality due to extended carbon dioxide anaesthetization. Each subgroup of approximately 20 bees, of the 8–13 dose-groups in the bioassay, was then anaesthetized again and treated topically with either an acetone solvent control or one of a range of 7–12 acaricide doses, including doses eliciting 0% and 100% mortality, and at least three doses causing intermediate mortality. After treatment sucrose water was provided to groups of treated bees through a punctured 1.5 ml microcentrifuge tube following dosing, and bees were returned to the 34°C incubator. […] Immobile bees were scored as dead. […] At least three replicate treatment series were performed for each combination of pre-treatment and acaricide. Separately diluted acaricide dose series and bees taken from different colonies were used for each replicate treatment.\n(§3) Lines were fitted to dose-mortality data on a log-probit scale for each pretreatment-acaricide combination using ‘glm’ in the R statistical package. […] Interactive effects between acaricides and the various pre-treatments were determined with pairwise tests comparing the dose-response lines for bees receiving pre-treatments with bees receiving a control pre-treatment using a test analogous to ANCOVA [26]. The full model, which includes the dose of acaricide as a covariate, pre-treatment as a categorical factor and the interaction between acaricide dose and pre-treatment, was compared with two simplified models (Figure 3). A process of model simplification was undertaken in which the explanatory power of model terms was assessed by reference to the likelihood ratio [38]. The first simplified model lacks the interaction term and tests the interaction between pre-treatment and acaricide dose, essentially testing for differences in the slope of the two dose-response lines (also known as a test of the “hypothesis of parallelism” [26])."}, "[2]": {"tested_on": "honey bees (Apis mellifera)", "test": "Lethal dose bioassay: antimicrobial drugs fed in sucrose syrup, then topical acaricide dose series, 2010", "conditions": "for interactive effect between antimicrobial pre-treatment and acaricide toxicity (in words): 2010 oral pre-treatments, partner named in the value", "experimental": "as §1, §2, §3"}, "honey bees": {"tested_on": "honey bees", "test": "Estimated daily exposure and margin of safety of acaricide formulations", "set-up": "species or system Apis mellifera", "conditions": "LD10 divided by estimated daily dose", "text": "High sublethal doses were deliberately chosen as pre-treatments to make the magnitude of any interactive effect between the pre-treatment and acaricide as large as possible. However, to determine the hazard posed by acaricide interactions in bee hives, the actual exposure bees receive when treated with formulated acaricides must be considered. […] The LD10 can be determined from the fitted dose response lines (Table S1). The daily dose can be estimated by first determining the amount of active ingredient present in each acaricide formulation, correcting this value by the amount of active ingredient available for uptake by the bees (e.g. 10% of the total acaricide content in strip formulations is taken up by bees, [50]) and dividing this quantity by the number of days the acaricide formulation is present in the hive. The estimated daily dose calculated in this way can be validated using published pesticide residue data, [51]."}, "Apis mellifera": {"tested_on": "Apis mellifera", "conditions": "cited from earlier work"}, "[3]": {"tested_on": "honey bees (Apis mellifera)", "test": "Lethal dose bioassay: tau-fluvalinate after PBO or SBI fungicide pre-treatment at 0.1, 1 or 10 nmol per bee, 2010", "format": "in vivo", "text": "Acetone was also applied as a pre-treatment control.\nImmobile bees were scored as dead."}, "[4]": {"tested_on": "honey bees (Apis mellifera)", "conditions": "study conducted in 2008 using an identical protocol; cited from earlier work"}, "[5]": {"conditions": "tau-fluvalinate topical dose series after acetone control pre-treatment"}}, "note": "“Also recorded” adds a separate entry of the source. Counter-ions that a name gives are not always drawn. Like-named read-outs stand apart in the source and are kept apart here.", "data": [{"molecule": "Cc1ccc(/N=C/N(C)/C=N/c2ccc(C)cc2C)c(C)c1", "note": "[amitraz]", "values": [{"measurement": "interactive effect between pre-treatment and acaricide toxicity (in words)", "setting": "[1]", "result": "toxicity of amitraz was unchanged when bees were pre-treated with tau-fluvalinate; also recorded: oxalic acid pre-treatment reduced the toxicity of amitraz nearly four-fold"}, {"measurement": "LD10", "setting": "[1]", "result": 0.92, "unit": "µg/bee"}, {"measurement": "interactive effect between antimicrobial pre-treatment and acaricide toxicity (in words)", "setting": "[2]", "result": "this combination had no effect on acute mortality"}, {"measurement": "margin of safety of acaricide formulations", "setting": "honey bees", "result": "2.0 to 7.8", "unit": "fold"}]}, {"molecule": "O=C(O)C(=O)O", "note": "[oxalic acid]", "values": [{"measurement": "LD10", "setting": "Apis mellifera", "result": 176.7, "unit": "c µg/bee"}]}, {"molecule": "CCOC(=O)/C=C\\C(=O)OCC", "note": "[DEM, diethyl maleate]", "values": [{"measurement": "interactive effect between pre-treatment and acaricide toxicity (in words)", "setting": "[1]", "result": "did not interact with any acaricide tested"}]}, {"molecule": "CC(C)[C@@H](Nc1ccc(C(F)(F)F)cc1Cl)C(=O)OC(C#N)c1cccc(Oc2ccccc2)c1", "note": "(stereo partly shown) [tau-fluvalinate]", "values": [{"measurement": "LD50 of the acaricide", "setting": "[1]; 2009, topical, adult workers, pre-treatment: control, 1 µl acetone", "result": 19.8, "unit": "µg per bee"}, {"measurement": "increase in toxicity of tau-fluvalinate", "setting": "[1]; 2009 experiments, prochloraz pre-treatment", "result": "~2000", "unit": "fold"}, {"measurement": "interactive effect between pre-treatment and acaricide toxicity (in words)", "setting": "[1]", "result": "tau-fluvalinate toxicity was transitively increased when thymol was applied as a pre-treatment; also recorded: chlorothalonil increased the toxicity of both thymol and tau-fluvalinate; also recorded: Pyraclostrobin and boscalid applied together in a blend like Pristine moderately increased the toxicity of tau-fluvalinate"}, {"measurement": "increase in toxicity of tau-fluvalinate", "setting": "[1]; amitraz pre-treatment", "result": 5, "unit": "fold"}, {"measurement": "increase in toxicity of tau-fluvalinate", "setting": "[1]; fenpyroximate pre-treatment", "result": 8, "unit": "fold"}, {"measurement": "LD10", "setting": "[1]", "result": 3.08, "unit": "µg/bee"}, {"measurement": "LD50 of the acaricide", "setting": "[2]; 2010, topical acaricide, bees fed control 1:1 sucrose syrup", "result": 9.2, "unit": "µg per bee"}, {"measurement": "interactive effect between antimicrobial pre-treatment and acaricide toxicity (in words)", "setting": "[2]", "result": "pretreating bees with oxytetracycline had no significant effect on the LD50 of tau-fluvalinate"}, {"measurement": "interactive effect between SBI fungicide pre-treatment and tau-fluvalinate toxicity (in words)", "setting": "[3]; 2010, SBI fungicides", "result": "an antagonistic interaction was observed at the lowest fungicide doses (0.1 nmol or approximately 0.03 µg per bee)"}, {"measurement": "LD50 for tau-fluvalinate", "setting": "[3]; 2010, topical, pre-treatment: control (acetone)", "result": 9.0, "unit": "µg per bee"}, {"measurement": "interaction between tau-fluvalinate and PBO", "setting": "[3]; PBO 10 nmol dose level", "result": 5.8, "unit": "fold"}, {"measurement": "increase in toxicity of tau-fluvalinate", "setting": "[3]; pre-treated with any of the 5 fungicides or PBO at the 1 nmol dose", "result": "1.4 to 2.3", "unit": "fold"}, {"measurement": "increase in toxicity of tau-fluvalinate", "setting": "[3]; pre-treated with any of the 5 fungicides or PBO at the 10 nmol dose", "result": "12 to 74", "unit": "fold"}, {"measurement": "dose-response line intercept ± SE", "setting": "[3]; [5]", "result": "-2.72 ± 0.24"}, {"measurement": "dose-response line slope ± SE", "setting": "[3]; [5]", "result": "2.85 ± 0.26"}, {"measurement": "LD50 for tau-fluvalinate", "setting": "[4]", "result": 6.75, "unit": "µg per bee"}]}, {"molecule": "Cc1ccc(C(C)C)c(O)c1", "note": "[thymol]", "values": [{"measurement": "margin of safety of acaricide formulations", "setting": "honey bees", "result": "2.0 to 7.8", "unit": "fold"}]}, {"molecule": "CC[C@H]1OC(=O)C[C@@H](O)[C@H](C)[C@@H](O[C@@H]2O[C@H](C)[C@@H](O[C@H]3C[C@@](C)(O)[C@@H](O)[C@H](C)O3)[C@H](N(C)C)[C@H]2O)[C@@H](CC=O)C[C@@H](C)C(=O)/C=C/C(C)=C/[C@@H]1CO[C@@H]1O[C@H](C)[C@@H](O)[C@@H](OC)[C@H]1OC", "note": "[tylosin]", "values": [{"measurement": "interactive effect between antimicrobial pre-treatment and acaricide toxicity (in words)", "setting": "[2]", "result": "did not interact with any acaricide tested"}]}, {"molecule": "O=C(Nc1ccccc1-c1ccc(Cl)cc1)c1cccnc1Cl", "note": "[boscalid]", "values": [{"measurement": "interactive effect between pre-treatment and acaricide toxicity (in words)", "setting": "[1]", "result": "did not interact with any acaricide tested"}]}]}
